Test results reported in PubChem BioAssay AID1963448 (Molecular Pharmacology Branch, DTP, NCI, 2024).
pIC50: −log10 of the molar value.

Test system: 616215-338-R-J1-PDC complex spheroid growth, % test/control
Assay: Anticancer human tumor 616215-338-R-J1-PDC patient-derived colon adenocarcinoma cell line growth inhibition [Asc]
Conditions: for pIC50: curve of first compound; for viability, T/C: stronger effect = lower value
Summary of the method: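 Tumor cells were grown as complex spheroids with human endothelial cells (HUVEC) and human mesenchymal stem cells as stroma. Agents were tested alone and in combination, in half-log steps down from the clinical Cmax, or from 10 microM where Cmax was unknown.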

[1] = second compound 0.1 µM, first compound 0.00316 µM
[2] = second compound 0.1 µM, first compound 0.01 µM
[3] = second compound 0.1 µM, first compound 0.0316 µM
[4] = second compound 0.1 µM, first compound 0.1 µM
[5] = second compound 0.1 µM, first compound 0.316 µM
[6] = second compound 0.1 µM, first compound 1 µM
[7] = second compound 0.316 µM, first compound 0.00316 µM
[8] = second compound 0.316 µM, first compound 0.01 µM
[9] = second compound 0.316 µM, first compound 0.0316 µM
[10] = second compound 0.316 µM, first compound 0.1 µM
[11] = second compound 0.316 µM, first compound 0.316 µM
[12] = second compound 0.316 µM, first compound 1 µM
[13] = second compound 1 µM, first compound 0.00316 µM
[14] = second compound 1 µM, first compound 0.01 µM
[15] = second compound 1 µM, first compound 0.0316 µM
[16] = second compound 1 µM, first compound 0.1 µM
[17] = second compound 1 µM, first compound 0.316 µM
[18] = second compound 1 µM, first compound 1 µM
[19] = second compound 3.16 µM, first compound 0.00316 µM
[20] = second compound 3.16 µM, first compound 0.01 µM
[21] = second compound 3.16 µM, first compound 0.0316 µM
[22] = second compound 3.16 µM, first compound 0.1 µM
[23] = second compound 3.16 µM, first compound 0.316 µM
[24] = second compound 3.16 µM, first compound 1 µM
[25] = second compound 10 µM, first compound 0.00316 µM
[26] = second compound 10 µM, first compound 0.01 µM
[27] = second compound 10 µM, first compound 0.0316 µM
[28] = second compound 10 µM, first compound 0.1 µM
[29] = second compound 10 µM, first compound 0.316 µM
[30] = second compound 10 µM, first compound 1 µM
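Also: spheroids exposed to agents for seven days before readout.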
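For viability, T/C in this document: 100% = DMSO vehicle control viability.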

`CCN1CCN(Cc2ccc(Nc3ncc(F)c(-c4cc(F)c5nc(C)n(C(C)C)c5c4)n3)nc2)CC1` + Cc1c(S(C)(=O)=O)c(-c2cc(F)cc(N3CCN(c4ccc(NS(=O)(=O)c5ccc(NC(CCN6CCC(C(=O)OCCCP(=O)(O)O)CC6)CSc6ccccc6)c(S(=O)(=O)C(F)(F)F)c5)cc4)CC3)c2)c(-c2ccc(Cl)cc2)n1C(C)C gave a pIC50 (second compound 0.1 µM) of less than 6.00, a pIC50 (second compound 0.316 µM) of less than 6.00 and a pIC50 (second compound 1 µM) of less than 6.00. It also gave a pIC50 (second compound 3.16 µM) greater than 8.50, a pIC50 (second compound 10 µM) greater than 8.50 and a viability, T/C [1] of 92.5%. For the same compound, the viability, T/C [2] was 89.3%, the viability, T/C [3] was 92.6% and the viability, T/C [4] was 96.5%. For the same compound, the viability, T/C [5] was 100%, the viability, T/C [6] was 129% and the viability, T/C [7] was 86%. It also gave a viability, T/C [8] of 84.9%, a viability, T/C [9] of 93.2% and a viability, T/C [10] of 99.7%. For the same compound, the viability, T/C [11] was 109%, the viability, T/C [12] was 130% and the viability, T/C [13] was 68.5%. The viability, T/C [14] was 75.8%, the viability, T/C [15] was 77.9% and the viability, T/C [16] was 78%. For the same compound, the viability, T/C [17] was 99.3%, the viability, T/C [18] was 95.9% and the viability, T/C [19] was 45.9%. For the same compound, the viability, T/C [20] was 52.7%, the viability, T/C [21] was 58.6% and the viability, T/C [22] was 69%. It also gave a viability, T/C [23] of 86.1%, a viability, T/C [24] of 54.8% and a viability, T/C [25] of 30%. For the same compound, the viability, T/C [26] was 32.9%, the viability, T/C [27] was 34% and the viability, T/C [28] was 39.4%. The viability, T/C [29] was 67.7% and the viability, T/C [30] was 24.7%.
`NC(=O)C(=Cn1cnc(-c2cc(C(F)(F)F)cc(C(F)(F)F)c2)n1)c1cncnc1` + Cc1c(S(C)(=O)=O)c(-c2cc(F)cc(N3CCN(c4ccc(NS(=O)(=O)c5ccc(NC(CCN6CCC(C(=O)OCCCP(=O)(O)O)CC6)CSc6ccccc6)c(S(=O)(=O)C(F)(F)F)c5)cc4)CC3)c2)c(-c2ccc(Cl)cc2)n1C(C)C gave a pIC50 (second compound 0.1 µM) of less than 6.52, a pIC50 (second compound 0.316 µM) of 6.84 and a pIC50 (second compound 1 µM) of 7.44. For the same compound, the pIC50 (second compound 3.16 µM) was greater than 9.02, the pIC50 (second compound 10 µM) was greater than 9.02 and the viability, T/C (second compound 0.1 µM, first compound 0.000949 µM) was 91.7%. For the same compound, the viability, T/C (second compound 0.1 µM, first compound 0.003 µM) was 91.1%, the viability, T/C (second compound 0.1 µM, first compound 0.00949 µM) was 87.2% and the viability, T/C (second compound 0.1 µM, first compound 0.03 µM) was 91.7%. The viability, T/C (second compound 0.1 µM, first compound 0.0949 µM) was 81%, the viability, T/C (second compound 0.1 µM, first compound 0.3 µM) was 71.8% and the viability, T/C (second compound 0.316 µM, first compound 0.000949 µM) was 95.6%. For the same compound, the viability, T/C (second compound 0.316 µM, first compound 0.003 µM) was 97.5%, the viability, T/C (second compound 0.316 µM, first compound 0.00949 µM) was 89.3% and the viability, T/C (second compound 0.316 µM, first compound 0.03 µM) was 78.8%. For the same compound, the viability, T/C (second compound 0.316 µM, first compound 0.0949 µM) was 64.7%, the viability, T/C (second compound 0.316 µM, first compound 0.3 µM) was 26.7% and the viability, T/C (second compound 1 µM, first compound 0.000949 µM) was 67%. It also gave a viability, T/C (second compound 1 µM, first compound 0.003 µM) of 71.3%, a viability, T/C (second compound 1 µM, first compound 0.00949 µM) of 68.5% and a viability, T/C (second compound 1 µM, first compound 0.03 µM) of 55.9%. It also gave a viability, T/C (second compound 1 µM, first compound 0.0949 µM) of 20.6%, a viability, T/C (second compound 1 µM, first compound 0.3 µM) of 1.76% and a viability, T/C (second compound 3.16 µM, first compound 0.000949 µM) of 41.7%. It also gave a viability, T/C (second compound 3.16 µM, first compound 0.003 µM) of 42.7%, a viability, T/C (second compound 3.16 µM, first compound 0.00949 µM) of 34.4% and a viability, T/C (second compound 3.16 µM, first compound 0.03 µM) of 24.3%. It also gave a viability, T/C (second compound 3.16 µM, first compound 0.0949 µM) of 2.24%, a viability, T/C (second compound 3.16 µM, first compound 0.3 µM) of 0.67% and a viability, T/C (second compound 10 µM, first compound 0.000949 µM) of 27.9%. The viability, T/C (second compound 10 µM, first compound 0.003 µM) was 25%, the viability, T/C (second compound 10 µM, first compound 0.00949 µM) was 19.2% and the viability, T/C (second compound 10 µM, first compound 0.03 µM) was 6.13%. The viability, T/C (second compound 10 µM, first compound 0.0949 µM) was 0.4% and the viability, T/C (second compound 10 µM, first compound 0.3 µM) was 0.25%.
For `O=C(c1ccc(F)c(F)c1Nc1ccc(I)cc1F)N1CC(O)([C@@H]2CCCCN2)C1` + Cc1c(S(C)(=O)=O)c(-c2cc(F)cc(N3CCN(c4ccc(NS(=O)(=O)c5ccc(NC(CCN6CCC(C(=O)OCCCP(=O)(O)O)CC6)CSc6ccccc6)c(S(=O)(=O)C(F)(F)F)c5)cc4)CC3)c2)c(-c2ccc(Cl)cc2)n1C(C)C, the pIC50 (second compound 0.1 µM) was 7.19, the pIC50 (second compound 0.316 µM) was 7.23 and the pIC50 (second compound 1 µM) was 7.42. For the same compound, the pIC50 (second compound 3.16 µM) was greater than 8.50, the pIC50 (second compound 10 µM) was greater than 8.50 and the viability, T/C [1] was 92.4%. For the same compound, the viability, T/C [2] was 91.7%, the viability, T/C [3] was 79.5% and the viability, T/C [4] was 32%. It also gave a viability, T/C [5] of 1.51%, a viability, T/C [6] of 0.8% and a viability, T/C [7] of 92.8%. It also gave a viability, T/C [8] of 91.9%, a viability, T/C [9] of 79.3% and a viability, T/C [10] of 24.4%. For the same compound, the viability, T/C [11] was 0.48%, the viability, T/C [12] was 0.95% and the viability, T/C [13] was 68%. It also gave a viability, T/C [14] of 70.4%, a viability, T/C [15] of 56% and a viability, T/C [16] of 17.4%. The viability, T/C [17] was 0.25%, the viability, T/C [18] was 2.24% and the viability, T/C [19] was 39.5%. It also gave a viability, T/C [20] of 34.9%, a viability, T/C [21] of 27.3% and a viability, T/C [22] of 2.89%. It also gave a viability, T/C [23] of 0.11%, a viability, T/C [24] of 0.23% and a viability, T/C [25] of 25.1%. The viability, T/C [26] was 21.5%, the viability, T/C [27] was 14.2% and the viability, T/C [28] was 0.19%. It also gave a viability, T/C [29] of 0.18% and a viability, T/C [30] of 0.36%.
